“Also recorded” adds a separate entry of the source.

Holding throughout (format): cell-based, human
In assay [1] the test system is NanoLuciferase fused to various IKZF3-based degradation tags. The assay is described as follows: Western blot of variant IKZF3-based degradation tags fused to NanoLuciferase in HEK293T cells. To be noted: tag fused to N-terminus of NanoLuciferase. On the procedure:
Additionally, the IKZF3-based degradation tags were modified using the following strategies:
(1) deleting N-terminal and/or C-terminal amino acid residues;
Protein degradation was measured using western blot as described in Example 2.
Background: A western blot detects proteins with antibodies after separation by electrophoresis.

Assay [2] concerns IKZF3 degron-tagged melanogenesis associated transcription factor (MITF). In words: Western blot of IKZF3-tagged MITF in HEK293T cells. Conditions: HEK293T; Western blot. The procedure: IKZF3-based degradation tags were evaluated for their ability to facilitate the degradation of melanogenesis associated transcription factor (MITF) or avian myelocytomatosis viral oncogene (MYC) homolog by Western blot. In addition to the IKZF3-based degradation tags, MITF and MYC were also fused to a FLAG tag to facilitate their detection using an anti-FLAG antibody.
DMSO was used as vehicle control.

Assay [3] deals with CAR19 fused to HilD tag and/or FurON. The assay is described as follows: Flow cytometry of surface CAR expression on JNL cells, 10 μM lenalidomide and/or bazedoxifene 24 hours. To be noted: surface CAR on transduced JNL cells; for % reduction in CAR expression / Effect of lenalidomide: 10 μM lenalidomide, 24 hours; for CAR Expression: flow cytometry, FurON constructs only in presence of bazedoxifene.
Text: Next, the surface expression of CAR19 on stably transduced JNL cells was examined by flow cytometry. […] On Day 2, cells were harvested, stained using biotinylated-protein L (Genscript, M00097) followed by PE conjugated streptavidin (Jackson Lab, 016-110-084), and subjected to flow cytometry analysis using Fortessa instrument.

For the molecule “IKZF3 136-180 and 236-249 K245S: tag with lysine at position 245 mutated to serine, SEQ ID NO: 100 (HKRSHTGERPFQCNQCGASFTQKGNLLRHIKLHTGEKPFKCHLCNTASAEARHISAEMG; source: /note="Description of Unknown: IKZF3 sequence")”, the “ability of the tag to facilitate lenalidomide-dependent degradation of NanoLuciferase” value (from here on “ability of the tag … of NanoLuciferase”) in assay [1] is reported as “facilitated lenalidomide-induced degradation”; in assay [1] (listed as SEQ ID NO: 100), “did not significantly impact the ability of the tag to mediate degradation”.
For the molecule “lysine free IKZF3 136-180 and 236-249: variant in which every lysine residue in the tag was mutated to arginine, SEQ ID NO: 4”, the “ability of the tag to mediate lenalidomide-dependent degradation of MITF” value in assay [2] is on record as “did not significantly impact the ability of this tag to mediate lenalidomide-dependent degradation of MITF”.
“IKZF3 141-163 MALEK: tag comprising the amino acid sequence of SEQ ID NO: 88 (TGERPFQCNQCGASFTQKGNLLRMALEKMALEKMALE; source: /note="Description of Unknown: IKZF3 sequence")”: the “ability of the tag … of NanoLuciferase” value in assay [1] was “did not mediate lenalidomide-induced degradation; also recorded: did not mediate lenalidomide induced degradation”.
In the case of “IKZF3 136-180 and 236-249 K245R: tag with lysine at position 245 mutated to arginine, SEQ ID NO: 84 (HKRSHTGERPFQCNQCGASFTQKGNLLRHIKLHTGEKPFKCHLCNTASAEARHIRAEMG; source: /note="Description of Unknown: IKZF3 sequence")”, the results for the “ability of the tag … of NanoLuciferase” value in assay [1] and in assay [1] (listed as SEQ ID NO: 84) were “facilitated lenalidomide-induced degradation” and “did not significantly impact the ability of the tag to mediate degradation”, respectively.
Turning to “IKZF3 140-170 MALEK: tag comprising the amino acid sequence of SEQ ID NO: 87”, the “ability of the tag … of NanoLuciferase” value in assay [1] was “did not mediate lenalidomide-induced degradation; also recorded: did not mediate lenalidomide induced degradation”.
In the case of “IKZF3 145-155 MALEK: tag comprising the amino acid sequence of SEQ ID NO: 89 (PFQCNQCGASFMALEKMALEKMALE; source: /note="Description of Unknown: IKZF3 sequence")”, the “ability of the tag … of NanoLuciferase” value in assay [1] was “did not mediate lenalidomide-induced degradation; also recorded: did not mediate lenalidomide induced degradation”.
On to “IKZF3 136-170 MALEK: IKZF3 136-170 with helix MALEKMALEKMALE, SEQ ID NO: 86”, for which the “ability of the tag … of NanoLuciferase” value in assay [1] was “retained the ability to facilitate lenalidomide-dependent degradation; also recorded: able to mediate lenalidomide-dependent degradation; also recorded: facilitated lenalidomide-induced degradation”.
As to “IKZF3 136-180 MALEK: residues 236-249 replaced with helix MALEKMALEKMALE, SEQ ID NO: 85”, the “ability of the tag … of NanoLuciferase” value in assay [1] is reported as “retained the ability to facilitate lenalidomide-dependent degradation; also recorded: facilitated lenalidomide-induced degradation”.

B1: 767 (protein)
chain: MALPVTALLLPLALLLHAARPRSSLALSLTADQMVSALLDAEPPILYSEYDPTRPFSEASMMGLLTNLADRELVHMINWAKRVPGFVDLALHDQVHLLECAWMEILMIGLVWRSMEHPGKLLFAPNLLLDRNQGKCVEGGVEIFDMLLATSSRFRMMNLQGEEFVCLKSIILLNSGVYTFLSSTLKSLEEKDHIHRVLDKITDTLIHLMAKAGLTLQQQHQRLAQLLLILSHIRHMSSKRMEHLYSMKCKNVVPLSDLLLEMLDAHRLGTGAEDPRPSRKRRSLGDVGEIVMTQSPATLSLSPGERATLSCRASQDISKYLNWYQQKPGQAPRLLIYHTSRLHSGIPARFSGSGSGTDYTLTISSLQPEDFAVYFCQQGNTLPYTFGQGTKLEIKGGGGSGGGGSGGGGSQVQLQESGPGLVKPSETLSLTCTVSGVSLPDYGVSWIRQPPGKGLEWIGVIWGSETTYYQSSLKSRVTISKDNSKNQVSLKLSSVTAADTAVYYCAKHYYYGGSYAMDYWGQGTLVTVSSTTTPAPRPPTPAPTIASQPLSLRPEACRPAAGGAVHTRGLDFACDIYIWAPLAGTCGVLLLSLVITLYCKRGRKKLLYIFKQPFMRPVQTTQEEDGCSCRFPEEEEGGCELRVKFSRSADAPAYQQGQNQLYNELNLGRREEYDVLDKRRGRDPEMGGKPRRKNPQEGLYNELQKDKMAEAYSEIGMKGERRRGKGHDGLYQGLSTATKDTYDALHMQALPPRGGGGSGGGGTGGGGSGMHKRSHTGERPFQCNQCGASFTQKGNLLRHIKLHTGEKPFKCHLCNTASAEARHIKAEMG
Regarding B1, in assay [3], the “% reduction in CAR expression” value is reported as 95%, the Effect of lenalidomide entry was “Yes” and the “CAR Expression” value is reported as “Yes”. Further, the Effect of bazedoxifene entry in assay [3] (with/without bazedoxifene) is listed as “Yes”.

B2: 768 (protein)
chain: MALPVTALLLPLALLLHAARPEIVMTQSPATLSLSPGERATLSCRASQDISKYLNWYQQKPGQAPRLLIYHTSRLHSGIPARFSGSGSGTDYTLTISSLQPEDFAVYFCQQGNTLPYTFGQGTKLEIKGGGGSGGGGSGGGGSQVQLQESGPGLVKPSETLSLTCTVSGVSLPDYGVSWIRQPPGKGLEWIGVIWGSETTYYQSSLKSRVTISKDNSKNQVSLKLSSVTAADTAVYYCAKHYYYGGSYAMDYWGQGTLVTVSSTTTPAPRPPTPAPTIASQPLSLRPEACRPAAGGAVHTRGLDFACDIYIWAPLAGTCGVLLLSLVITLYCKRGRKKLLYIFKQPFMRPVQTTQEEDGCSCRFPEEEEGGCELRVKFSRSADAPAYQQGQNQLYNELNLGRREEYDVLDKRRGRDPEMGGKPRRKNPQEGLYNELQKDKMAEAYSEIGMKGERRRGKGHDGLYQGLSTATKDTYDALHMQALPPRGGGGSGGGGTGGGGSGMHKRSHTGERPFQCNQCGASFTQKGNLLRHIKLHTGEKPFKCHLCNTASAEARHIKAEMGGKPIPNPLLGLDST
In the case of B2, in assay [3], the “% reduction in CAR expression” value was found to be 88%, the Effect of lenalidomide result is “Yes” and the “CAR Expression” value is given as “Yes”.

B3: 769 (protein)
chain: MALPVTALLLPLALLLHAARPEIVMTQSPATLSLSPGERATLSCRASQDISKYLNWYQQKPGQAPRLLIYHTSRLHSGIPARFSGSGSGTDYTLTISSLQPEDFAVYFCQQGNTLPYTFGQGTKLEIKGGGGSGGGGSGGGGSQVQLQESGPGLVKPSETLSLTCTVSGVSLPDYGVSWIRQPPGKGLEWIGVIWGSETTYYQSSLKSRVTISKDNSKNQVSLKLSSVTAADTAVYYCAKHYYYGGSYAMDYWGQGTLVTVSSTTTPAPRPPTPAPTIASQPLSLRPEACRPAAGGAVHTRGLDFACDIYIWAPLAGTCGVLLLSLVITLYCKRGRKKLLYIFKQPFMRPVQTTQEEDGCSCRFPEEEEGGCELRVKFSRSADAPAYQQGQNQLYNELNLGRREEYDVLDKRRGRDPEMGGKPRRKNPQEGLYNELQKDKMAEAYSEIGMKGERRRGKGHDGLYQGLSTATKDTYDALHMQALPPRGGGGSGGGGTGGGGSGMHKRSHTGERPFQCNQCGASFTQKGNLLRHIKLHTGEKPFKCHLCNTASAEARHIKAEMG
Regarding B3, in assay [3], the “% reduction in CAR expression” value is reported as 90%, the Effect of lenalidomide result is “Yes” and the “CAR Expression” value is listed as “Yes”.

The record behind these values is patent publication US20220251152A1, “COMPOSITIONS AND METHODS FOR SELECTIVE PROTEIN DEGRADATION” (Novartis AG, priority 2019, published 2022).
